Assay results: patent publication US20050148495A1, “Methods and materials including for treating acne” (priority 2003, published 2005)
Values after ≈ are worked out from the molar mass of the structure shown. Read-outs that look alike come from different tables or passages of the source. Non-standard residues stand in square brackets, D forms with d. Residues, ends and D or L forms follow the SMILES beside them. d1Nal = N[C@H](Cc1cccc2ccccc12)C(=O)O

Key:
[1] = test system: P. acnes; details: for MBC Range: in µg/mL
Protocol: An in vitro assessment of antibiotic activity in XMP.629 and various known antibiotics against a representative panel of bacterial strains associated with acne was conducted. A broth dilution methodology was employed using guidelines established by National Committee for Clinical Laboratory Standards (NCCLS) for anaerobic organisms to establish an antibacterial profile for XMP.629. Assays to determine the minimal bactericidal concentrations (MBC) and minimal inhibitory concentration (MIC) were conducted for XMP.629 and other known antibiotics.
Inoculum from a representative panel of bacterial strains associated with acne, such as P. acnes, P. avidum, P. granulosum, and Staphylococcus epidermis was prepared by suspending approximately 5-10 isolated bacterial colonies in pre-reduced MicroScan® Inoculum Water (Dade Behring, Deerfield, Ill.), and growing the bacterial suspension to log phase (approximately 48 hrs). An inoculum of between 1-5×10^6/mL was achieved by adding 100 μL of the suspension to 25 mL Brain Heart Infusion Broth (BHI) (Anaerobe Systems, Morgan Hill, Calif.).
A stock solution of XMP.629 dissolved in water at a concentration of 4.0 mg/mL was prepared. Dilute solutions of XMP.629 at concentrations ranging from about 1.25 to about 160 μg/mL were made in either water or formulation buffer (130 mM sodium chloride, 0.2% P103 (poloxamer 333), and 0.10% EDTA, pH 7.3).
Control tubes containing only water or formulation buffer were prepared for each isolate. Initial growth controls were determined by removing 10 μL from the water control tube and diluting it by 100 fold. From this dilution, 10 μL was used for inoculation and for spreading over the surface onto Laked Blood Agar (LBA) (Anaerobe Systems, Morgan Hill, Calif.) plates. The tubes and plates were incubated in an anaerobic atmosphere at 37° C. for 48 h.

[2] = test system: Propionibacterium acnes; details: Propionibacterium acnes 6919
[3] = ATCC 6919, Formulation Buffer Solvent, Study 1
[4] = ATCC 6919, Formulation Buffer Solvent, Study 2
[5] = ATCC 6919, Water Solvent, Study 1
[6] = ATCC 6919, Water Solvent, Study 2
[7] = ATCC 6919, XMP.629 composition of Example 5 (Table 12)
[8] = ATCC 11827, Formulation Buffer Solvent, Study 1
[9] = ATCC 11827, Formulation Buffer Solvent, Study 2
[10] = ATCC 11827, Water Solvent, Study 1
[11] = ATCC 11827, Water Solvent, Study 2
[12] = ATCC 11828, composition of Example 5
[13] = Clindamycin Resistant C678, composition of Example 5
[14] = Clindamycin Resistant C767, composition of Example 5
[15] = Clindamycin Resistant C768, composition of Example 5
[16] = Clindamycin Resistant C769, composition of Example 5
[17] = Clindamycin Resistant C770, composition of Example 5
[18] = P. acnes strains of Table 7, composition of Example 5
[19] = P. acnes, Clindamycin resistant, 16 strains
[20] = P. acnes, Clindamycin sensitive, 20 strains
[21] = Propionibacterium acnes, 36 strains/clinical isolates, formulation buffer
[22] = RMA 9833, Formulation Buffer Solvent, Study 1
[23] = RMA 9833, Formulation Buffer Solvent, Study 2
[24] = RMA 9833, Water Solvent, Study 1
[25] = RMA 9833, Water Solvent, Study 2
[26] = RMA 9833, composition of Example 5
[27] = RMA 12689, Formulation Buffer Solvent, Study 1
[28] = RMA 12689, Formulation Buffer Solvent, Study 2
[29] = RMA 12689, Water Solvent, Study 1
[30] = RMA 12689, Water Solvent, Study 2
[31] = RMA 12689, composition of Example 5
[32] = RMA 12732, Formulation Buffer Solvent, Study 1
[33] = RMA 12732, Formulation Buffer Solvent, Study 2
[34] = RMA 12732, Water Solvent, Study 1
[35] = RMA 12732, Water Solvent, Study 2
[36] = RMA 12908, Formulation Buffer Solvent, Study 1
[37] = RMA 12908, Formulation Buffer Solvent, Study 2
[38] = RMA 12908, Water Solvent, Study 1
[39] = RMA 12908, Water Solvent, Study 2
[40] = RMA 12908, composition of Example 5
[41] = RMA 13399, Formulation Buffer Solvent, Study 1
[42] = RMA 13399, Formulation Buffer Solvent, Study 2
[43] = RMA 13399, Water Solvent, Study 1
[44] = RMA 13399, Water Solvent, Study 2
[45] = UD 738, composition of Example 5
[46] = XMP.629 composition of Example 5 (Table 12), P. acnes strains of Table 7

Question: How did the MBC [1, 3] turn out when `CC(C)C[C@@H](NC(=O)[C@H](N)CCCCN)C(=O)N[C@H](Cc1ccccc1)C(=O)N[C@H](CCCNC(=N)N)C(=O)N[C@H](Cc1cccc2ccccc12)C(=O)N[C@H](CCC(N)=O)C(=O)N[C@H](C)C(=O)N[C@H](CCCCN)C(=O)N[C@H](Cc1cccc2ccccc12)C(N)=O` [XMP.629, NH2-lys-leu-phe-arg-(3-(1-naphthyl)-ala)-gln-ala-lys-(3-(1-naphthyl)-ala)-CONH2] (H-[dK][dL][dF][dR][d1Nal][dQ][dA][dK][d1Nal]-NH2) was run?
Answer: 1 µg/mL (≈ 0.779 µM)

Question: And the MIC [1, 3]?
Answer: 0.5 µg/mL (≈ 0.39 µM)

Question: And the MBC [1, 4]?
Answer: 0.50 µg/mL (≈ 0.39 µM)

Question: And the MIC [1, 4]?
Answer: 1 µg/mL (≈ 0.779 µM)

Question: What about the MBC [1, 5] of the same compound?
Answer: 4 µg/mL (≈ 3.12 µM)

Question: What about the MIC [1, 5] of the same compound?
Answer: 2 µg/mL (≈ 1.56 µM)

Question: What about the MBC [1, 6] of the same compound?
Answer: 2 µg/mL (≈ 1.56 µM)

Question: What about the MIC [1, 6] of the same compound?
Answer: 2 µg/mL (≈ 1.56 µM)

Question: What about the MBC [1, 7] of the same compound?
Answer: 2 µg/mL (≈ 1.56 µM)

Question: And the MIC [1, 7]?
Answer: 1 µg/mL (≈ 0.779 µM)

Question: And the MBC [1, 8]?
Answer: 1 µg/mL (≈ 0.779 µM)

Question: And the MIC [1, 8]?
Answer: 0.5 µg/mL (≈ 0.39 µM)

Question: What about the MBC [1, 9] of the same compound?
Answer: 1 µg/mL (≈ 0.779 µM)

Question: And the MIC [1, 9]?
Answer: 1 µg/mL (≈ 0.779 µM)

Question: And the MBC [1, 10]?
Answer: 2 µg/mL (≈ 1.56 µM)

Question: What about the MIC [1, 10] of the same compound?
Answer: 2 µg/mL (≈ 1.56 µM)

Question: And the MBC [1, 11]?
Answer: 2 µg/mL (≈ 1.56 µM)

Question: And the MIC [1, 11]?
Answer: 2 µg/mL (≈ 1.56 µM)

Question: What about the MBC [1, 12] of the same compound?
Answer: 2 µg/mL (≈ 1.56 µM)

Question: And the MIC [1, 12]?
Answer: 1 µg/mL (≈ 0.779 µM)

Question: What about the MBC [1, 13] of the same compound?
Answer: 4 µg/mL (≈ 3.12 µM)

Question: And the MIC [1, 13]?
Answer: 1 µg/mL (≈ 0.779 µM)

Question: What about the MBC [1, 14] of the same compound?
Answer: 2 µg/mL (≈ 1.56 µM)

Question: And the MIC [1, 14]?
Answer: 1 µg/mL (≈ 0.779 µM)

Question: And the MBC [1, 15]?
Answer: 4 µg/mL (≈ 3.12 µM)

Question: And the MIC [1, 15]?
Answer: 2 µg/mL (≈ 1.56 µM)

Question: What about the MBC [1, 16] of the same compound?
Answer: 2 µg/mL (≈ 1.56 µM)

Question: What about the MIC [1, 16] of the same compound?
Answer: 1 µg/mL (≈ 0.779 µM)

Question: What about the MBC [1, 17] of the same compound?
Answer: 2 µg/mL (≈ 1.56 µM)

Question: What about the MIC [1, 17] of the same compound?
Answer: 0.5 µg/mL (≈ 0.39 µM)

Question: What about the “MIC90, XMP.629 data reported as MBC values” ([1]; P. acnes) of the same compound?
Answer: 1 µg/mL (≈ 0.779 µM)

Question: And the “MBC Geo. Mean” value [1, 18]?
Answer: 2.3 µg/mL (≈ 1.79 µM)

Question: And the “MIC Geo. Mean” value [1, 18]?
Answer: 0.95 µg/mL (≈ 0.74 µM)

Question: What about the MBC50 [1, 19] of the same compound?
Answer: 1 µg/mL (≈ 0.779 µM)

Question: What about the MBC90 [1, 19] of the same compound?
Answer: 2 µg/mL (≈ 1.56 µM)

Question: And the “MBC Range” value [1, 19]?
Answer: 1-2

Question: What about the MBC50 [1, 20] of the same compound?
Answer: 1 µg/mL (≈ 0.779 µM)

Question: What about the MBC90 [1, 20] of the same compound?
Answer: 2 µg/mL (≈ 1.56 µM)

Question: What about the “MBC Range” value [1, 20] of the same compound?
Answer: 0.25-2

Question: What about the MBC50 [1, 21] of the same compound?
Answer: 1 µg/mL (≈ 0.779 µM)

Question: And the MBC90 [1, 21]?
Answer: 2 µg/mL (≈ 1.56 µM)

Question: What about the “MBC Range” value ([1]; Propionibacterium acnes, 36 strains/clinical isolates) of the same compound?
Answer: 0.25-2

Question: What about the MBC [1, 22] of the same compound?
Answer: 1 µg/mL (≈ 0.779 µM)

Question: What about the MIC [1, 22] of the same compound?
Answer: 0.5 µg/mL (≈ 0.39 µM)

Question: And the MBC [1, 23]?
Answer: 2 µg/mL (≈ 1.56 µM)

Question: What about the MIC [1, 23] of the same compound?
Answer: 1 µg/mL (≈ 0.779 µM)

Question: And the MBC [1, 24]?
Answer: 2 µg/mL (≈ 1.56 µM)

Question: What about the MIC [1, 24] of the same compound?
Answer: 1 µg/mL (≈ 0.779 µM)

Question: And the MBC [1, 25]?
Answer: 2 µg/mL (≈ 1.56 µM)

Question: What about the MIC [1, 25] of the same compound?
Answer: 2 µg/mL (≈ 1.56 µM)

Question: And the MBC [1, 26]?
Answer: 1 µg/mL (≈ 0.779 µM)

Question: And the MIC [1, 26]?
Answer: 0.5 µg/mL (≈ 0.39 µM)

Question: And the MBC [1, 27]?
Answer: 2 µg/mL (≈ 1.56 µM)

Question: What about the MIC [1, 27] of the same compound?
Answer: 1 µg/mL (≈ 0.779 µM)

Question: What about the MBC [1, 28] of the same compound?
Answer: 2 µg/mL (≈ 1.56 µM)

Question: And the MIC [1, 28]?
Answer: 1 µg/mL (≈ 0.779 µM)

Question: And the MBC [1, 29]?
Answer: 4 µg/mL (≈ 3.12 µM)

Question: What about the MIC [1, 29] of the same compound?
Answer: 2 µg/mL (≈ 1.56 µM)

Question: What about the MBC [1, 30] of the same compound?
Answer: 2 µg/mL (≈ 1.56 µM)

Question: And the MIC [1, 30]?
Answer: 2 µg/mL (≈ 1.56 µM)

Question: What about the MBC [1, 31] of the same compound?
Answer: 2 µg/mL (≈ 1.56 µM)

Question: What about the MIC [1, 31] of the same compound?
Answer: 1 µg/mL (≈ 0.779 µM)

Question: What about the MBC [1, 32] of the same compound?
Answer: 2 µg/mL (≈ 1.56 µM)

Question: And the MIC [1, 32]?
Answer: 2 µg/mL (≈ 1.56 µM)

Question: And the MBC [1, 33]?
Answer: 2 µg/mL (≈ 1.56 µM)

Question: What about the MIC [1, 33] of the same compound?
Answer: 2 µg/mL (≈ 1.56 µM)

Question: What about the MBC [1, 34] of the same compound?
Answer: 4 µg/mL (≈ 3.12 µM)

Question: What about the MIC [1, 34] of the same compound?
Answer: 4 µg/mL (≈ 3.12 µM)

Question: What about the MBC [1, 35] of the same compound?
Answer: 2 µg/mL (≈ 1.56 µM)

Question: What about the MIC [1, 35] of the same compound?
Answer: 4 µg/mL (≈ 3.12 µM)

Question: What about the MBC [1, 36] of the same compound?
Answer: 2 µg/mL (≈ 1.56 µM)

Question: What about the MIC [1, 36] of the same compound?
Answer: 2 µg/mL (≈ 1.56 µM)

Question: What about the MBC [1, 37] of the same compound?
Answer: 2 µg/mL (≈ 1.56 µM)

Question: What about the MIC [1, 37] of the same compound?
Answer: 2 µg/mL (≈ 1.56 µM)

Question: And the MBC [1, 38]?
Answer: 4 µg/mL (≈ 3.12 µM)

Question: What about the MIC [1, 38] of the same compound?
Answer: 4 µg/mL (≈ 3.12 µM)

Question: And the MBC [1, 39]?
Answer: 4 µg/mL (≈ 3.12 µM)

Question: What about the MIC [1, 39] of the same compound?
Answer: 2 µg/mL (≈ 1.56 µM)

Question: What about the MBC [1, 40] of the same compound?
Answer: 2 µg/mL (≈ 1.56 µM)

Question: And the MIC [1, 40]?
Answer: 1 µg/mL (≈ 0.779 µM)

Question: And the MBC [1, 41]?
Answer: 1 µg/mL (≈ 0.779 µM)

Question: What about the MIC [1, 41] of the same compound?
Answer: 0.5 µg/mL (≈ 0.39 µM)

Question: What about the MBC [1, 42] of the same compound?
Answer: 2 µg/mL (≈ 1.56 µM)

Question: And the MIC [1, 42]?
Answer: 2 µg/mL (≈ 1.56 µM)

Question: What about the MBC [1, 43] of the same compound?
Answer: 4 µg/mL (≈ 3.12 µM)

Question: And the MIC [1, 43]?
Answer: 2 µg/mL (≈ 1.56 µM)

Question: And the MBC [1, 44]?
Answer: 4 µg/mL (≈ 3.12 µM)

Question: And the MIC [1, 44]?
Answer: 4 µg/mL (≈ 3.12 µM)

Question: And the MBC [1, 45]?
Answer: 2 µg/mL (≈ 1.56 µM)

Question: What about the MIC [1, 45] of the same compound?
Answer: 0.5 µg/mL (≈ 0.39 µM)

Question: And the MBC50 [1, 46]?
Answer: 2 µg/mL (≈ 1.56 µM)

Question: And the MBC90 [1, 46]?
Answer: 2 µg/mL (≈ 1.56 µM)

Question: What about the “Minimum Inhibitory Concentrations” value [2] of the same compound?
Answer: 1.00 µg/mL
